Laboratory results from EP3820574B1, “3-(5-AMINO-1-OXOISOINDOLIN-2-YL)PIPERIDINE-2,6-DIONE DERIVATIVES AND THEIR USE IN THE TREATMENT OF IKAROS FAMILY ZINC FINGER 2 (IKZF2)-DEPENDENT DISEASES” (Novartis AG, priority 2018, dated 2020).

Columns and labels:
[1] = target: GSPT1 (Homo sapiens, UniProt P15170+Q96SW2); settings: read-out: GSPT1 EC50; GSPT1 degradation, prolabel-tagged fusion protein in 293GT cells; highest concentration 50 µM
Experimental: (§1) The Prolabel system from DiscoverX was used to develop high-throughput and quantitative assays to measure changes in IKZF1, IKZF2, and GSPT1 protein levels in response to compounds. […] The complementary fragment of beta-galactosidase (from DiscoverX), is added to the prolabel tag to form an active beta galactosidase enzyme whose activity can be precisely measured. In this way, the levels of a fusion protein with the prolabel tag can be quantified in cell lysates.
(§2) Lentiviral vectors, based on the Invitrogen pLenti6.2/V5 DEST backbone, were constructed that placed the prolabel tag upstream of IKZF1, IKZF2, or GSPT1 and expressed the fusion protein from a CMV promoter.
(§3) To ensure moderate and consistent expression of the prolabel fusion proteins across all cells in the population, stable cell lines were constructed from cells expressing a single copy of the construct. Lentivirus packaged with the constructs was made using the Virapower kit from Invitrogen.
(§4) The levels of prolabel tagged fusion proteins in compound treated cell lines were measured as follows: • Day 1, Cells were diluted to 1.0 x 10^6 cells/ml in normal growth medium. 17.5 µL of cells were plated in each well of a solid white 384 well plate. Plates were incubated overnight in a 37 °C tissue culture incubator. • Day 2, Serial dilutions of compounds were made in 384 well plates from 10 mM stocks. 15 µL of DMSO was added to each well of a 384 well plate. In the first column 15µL of stock compound was added. The solution was mixed and 15 µL was transferred to the next column. This was repeated until 20 two-fold dilutions were prepared. 2.5 µL of diluted compounds were transferred into 60 µL of cell culture medium in another 384 well plate, and mixed well. 2.5 µL of this mixture was added to the plated cells. The final DMSO concentration was 0.5% and the highest concentration of compound was 50 µM. Plates were incubated overnight (e.g., about 14 h, 18 h, or 24 h) in a 37 °C tissue culture incubator. • Day 3, Plates were removed from the incubator and allowed to equilibrate at rt for 30 minutes. Prolabel substrate (DiscoverX PathHunter Prolabel Detection Kit, User manual: 93-0180) was added as described by the manufacturers protocols. Plates were incubated at rt for three hours and luminescence was read using an Envision reader (Perkin Elmer) Data was analyzed and visualized using the Spotfire software package.

[2] = target: IKZF1 (Homo sapiens, UniProt Q13422+Q96SW2); assay: Prolabel quantification of IKZF1 protein levels in 293GT cells; settings: read-out: IKZF1 EC50; Ikaros (IKZF1) degradation, prolabel-tagged fusion protein in 293GT cells; highest concentration 50 µM
Chain of IKZF1 (Q13422 whole entry, the tested form may be a part): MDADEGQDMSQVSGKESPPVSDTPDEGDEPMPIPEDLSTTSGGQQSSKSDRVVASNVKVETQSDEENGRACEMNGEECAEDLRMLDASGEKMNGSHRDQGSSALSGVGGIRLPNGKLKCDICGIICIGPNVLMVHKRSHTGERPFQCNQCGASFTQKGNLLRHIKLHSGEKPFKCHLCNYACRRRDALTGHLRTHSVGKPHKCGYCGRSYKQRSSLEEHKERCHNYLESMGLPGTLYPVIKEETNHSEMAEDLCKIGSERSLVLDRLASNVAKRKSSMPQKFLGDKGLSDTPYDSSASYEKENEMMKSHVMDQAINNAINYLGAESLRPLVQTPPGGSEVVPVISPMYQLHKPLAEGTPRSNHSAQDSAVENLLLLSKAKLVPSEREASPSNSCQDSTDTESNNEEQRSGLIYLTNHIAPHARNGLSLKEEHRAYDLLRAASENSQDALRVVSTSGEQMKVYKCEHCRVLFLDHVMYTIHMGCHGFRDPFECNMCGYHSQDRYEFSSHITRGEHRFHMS
Chain of IKZF1 (Q96SW2 whole entry, the tested form may be a part): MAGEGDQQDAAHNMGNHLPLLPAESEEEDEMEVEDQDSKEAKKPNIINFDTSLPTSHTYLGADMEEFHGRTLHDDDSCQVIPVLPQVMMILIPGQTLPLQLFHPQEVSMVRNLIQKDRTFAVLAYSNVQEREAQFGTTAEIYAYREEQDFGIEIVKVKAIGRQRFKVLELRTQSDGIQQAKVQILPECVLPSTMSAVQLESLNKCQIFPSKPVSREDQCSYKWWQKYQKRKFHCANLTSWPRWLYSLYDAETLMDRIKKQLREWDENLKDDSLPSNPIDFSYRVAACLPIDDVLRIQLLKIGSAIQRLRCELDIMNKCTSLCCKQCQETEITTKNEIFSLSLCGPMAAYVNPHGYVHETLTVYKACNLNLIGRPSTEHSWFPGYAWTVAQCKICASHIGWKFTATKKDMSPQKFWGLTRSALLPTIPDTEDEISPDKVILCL
Chain of IKZF1 (Q16531 whole entry partner, the tested form may be a part): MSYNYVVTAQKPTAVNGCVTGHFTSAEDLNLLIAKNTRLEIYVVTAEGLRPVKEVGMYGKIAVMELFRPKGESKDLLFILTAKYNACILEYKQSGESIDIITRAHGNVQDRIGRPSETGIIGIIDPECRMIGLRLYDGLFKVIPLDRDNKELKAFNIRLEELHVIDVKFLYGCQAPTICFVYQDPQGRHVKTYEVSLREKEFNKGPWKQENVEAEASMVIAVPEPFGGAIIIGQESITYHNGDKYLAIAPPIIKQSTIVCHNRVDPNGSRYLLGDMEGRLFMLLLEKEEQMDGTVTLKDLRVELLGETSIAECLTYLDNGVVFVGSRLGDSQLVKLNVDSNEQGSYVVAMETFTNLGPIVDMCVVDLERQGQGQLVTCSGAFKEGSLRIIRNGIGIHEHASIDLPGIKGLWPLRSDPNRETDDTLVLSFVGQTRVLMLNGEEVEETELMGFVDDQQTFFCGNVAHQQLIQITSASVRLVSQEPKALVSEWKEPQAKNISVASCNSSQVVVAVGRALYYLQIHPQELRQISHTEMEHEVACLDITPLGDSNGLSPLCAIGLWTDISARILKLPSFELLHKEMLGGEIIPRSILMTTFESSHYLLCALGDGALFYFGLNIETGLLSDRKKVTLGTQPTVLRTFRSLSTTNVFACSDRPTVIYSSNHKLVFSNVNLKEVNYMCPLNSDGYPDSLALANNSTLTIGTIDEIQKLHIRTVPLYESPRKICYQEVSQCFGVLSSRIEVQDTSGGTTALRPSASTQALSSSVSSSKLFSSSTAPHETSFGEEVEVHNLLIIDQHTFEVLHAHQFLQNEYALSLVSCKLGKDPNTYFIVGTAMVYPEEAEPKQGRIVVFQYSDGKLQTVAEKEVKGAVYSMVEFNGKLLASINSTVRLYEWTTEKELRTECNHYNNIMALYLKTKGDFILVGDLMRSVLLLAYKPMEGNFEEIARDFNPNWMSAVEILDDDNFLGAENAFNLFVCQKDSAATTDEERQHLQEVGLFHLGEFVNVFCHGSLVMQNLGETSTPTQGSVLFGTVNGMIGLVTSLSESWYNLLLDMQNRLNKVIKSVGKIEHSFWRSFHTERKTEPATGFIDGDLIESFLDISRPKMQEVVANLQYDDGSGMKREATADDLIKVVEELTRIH
Experimental: as §1, §2, §3, §4

[3] = target: IKZF2 (Homo sapiens, UniProt Q96SW2+Q9UKS7); assay: Prolabel quantification of IKZF2 protein levels in 293GT cells; settings: for inhibition at 10 µM: read-out: IKZF2 % protein reduction at 10 µM, 24 h; for DC50: read-out: IKZF2 EC50, Helios (IKZF2) degradation, prolabel-tagged fusion protein in 293GT cells, highest concentration 50 µM
Chain of IKZF2 (Q9UKS7 whole entry, the tested form may be a part): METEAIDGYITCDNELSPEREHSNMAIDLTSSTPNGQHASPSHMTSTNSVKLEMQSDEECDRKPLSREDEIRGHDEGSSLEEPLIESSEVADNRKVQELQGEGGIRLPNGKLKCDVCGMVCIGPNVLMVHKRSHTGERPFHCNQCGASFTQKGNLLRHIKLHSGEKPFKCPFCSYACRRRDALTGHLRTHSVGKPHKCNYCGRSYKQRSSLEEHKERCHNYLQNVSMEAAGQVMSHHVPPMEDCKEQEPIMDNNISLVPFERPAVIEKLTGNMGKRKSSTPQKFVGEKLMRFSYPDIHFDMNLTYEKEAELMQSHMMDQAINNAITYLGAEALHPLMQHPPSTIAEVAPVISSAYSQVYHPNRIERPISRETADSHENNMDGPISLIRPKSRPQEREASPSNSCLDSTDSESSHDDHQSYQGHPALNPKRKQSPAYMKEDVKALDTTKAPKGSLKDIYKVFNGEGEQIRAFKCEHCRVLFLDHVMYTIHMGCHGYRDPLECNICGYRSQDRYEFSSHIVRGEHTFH
Chain of IKZF2 (Q96SW2 whole entry, the tested form may be a part): as the sequence (Q96SW2 whole entry, the tested form may be a part) above
Chain of IKZF2 (Q16531 whole entry partner, the tested form may be a part): as the sequence (Q16531 whole entry partner, the tested form may be a part) above
Experimental: as §1, §2, §3, §4

Chain of GSPT1 (P15170 whole entry, the tested form may be a part): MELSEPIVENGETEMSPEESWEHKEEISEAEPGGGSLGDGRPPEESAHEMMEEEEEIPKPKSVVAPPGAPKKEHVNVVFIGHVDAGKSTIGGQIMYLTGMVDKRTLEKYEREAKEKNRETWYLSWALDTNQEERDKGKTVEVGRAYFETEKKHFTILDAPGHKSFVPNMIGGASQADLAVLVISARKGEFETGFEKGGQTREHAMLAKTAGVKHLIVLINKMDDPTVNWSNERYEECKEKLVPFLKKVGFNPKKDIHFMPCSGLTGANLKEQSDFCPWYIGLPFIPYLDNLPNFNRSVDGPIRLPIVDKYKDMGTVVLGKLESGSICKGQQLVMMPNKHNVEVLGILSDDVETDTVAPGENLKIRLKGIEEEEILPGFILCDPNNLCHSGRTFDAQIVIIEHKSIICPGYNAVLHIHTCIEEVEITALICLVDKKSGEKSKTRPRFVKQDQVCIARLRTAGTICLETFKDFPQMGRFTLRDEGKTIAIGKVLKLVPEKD
Chain of GSPT1 (Q96SW2 whole entry, the tested form may be a part): as the sequence (Q96SW2 whole entry, the tested form may be a part) above
Chain of GSPT1 (Q16531 whole entry partner, the tested form may be a part): as the sequence (Q16531 whole entry partner, the tested form may be a part) above

O=C1CCC(N2Cc3cc(N[C@H]4CCCC[C@@H]4OCc4ccccc4)ccc3C2=O)C(=O)N1 (stereo partly drawn) [Compound I-4, 3-(5-(((1S,2S)-2-(benzyloxy)cyclohexyl)amino)-1-oxoisoindolin-2-yl)piperidine-2,6-dione]
DC50 [1]: > 30 µM

O=C1CCC(N2Cc3cc(N[C@H]4CCC[C@@H]4N4CCCCC4)ccc3C2=O)C(=O)N1 (stereo partly drawn) [Compound I-14, 3-(1-oxo-5-(((1S,2S)-2-(piperidin-1-yl)cyclopentyl)amino)isoindolin-2-yl)piperidine-2,6-dione]
DC50 [2]: > 30 µM
inhibition at 10 µM ([3]; 24 h): 40%
DC50 [3]: 0.73 µM

CN[C@H]1CCCC[C@@H]1N(C)c1ccc2c(c1)C(=O)N(C1CCC(=O)NC1=O)C2=O (stereo partly drawn) [Compound I-114, 2-(2,6-dioxopiperidin-3-yl)-5-(methyl((1S,2S)-2-(methylamino)cyclohexyl)amino)isoindoline-1,3-dione]
DC50 [2]: 0.29 µM
inhibition at 10 µM ([3]; 24 h): 70%
DC50 [3]: 0.024 µM
DC50 [1]: > 50 µM

CN[C@@H]1CCCC[C@H]1N(C)c1ccc2c(c1)CN(C1CCC(=O)NC1=O)C2=O (stereo partly drawn) [Compound I-2, 3-(5-(methyl((1R,2R)-2-(methylamino)cyclohexyl)amino)-1-oxoisoindolin-2-yl)piperidine-2,6-dione]
DC50 [2]: > 30 µM
inhibition at 10 µM ([3]; 24 h): 0%
DC50 [3]: > 30 µM
DC50 [1]: > 30 µM

CN(c1ccc2c(c1)C(=O)N(C1CCC(=O)NC1=O)C2=O)[C@H]1CCCC[C@@H]1NCC(=O)O (stereo partly drawn) [Compound I-148, ((1S,2S)-2-((2-(2,6-dioxopiperidin-3-yl)-1,3-dioxoisoindolin-5-yl)(methyl)amino)cyclohexyl)glycine]
DC50 [2]: > 30 µM
inhibition at 10 µM ([3]; 24 h): 40%
DC50 [3]: 11.3 µM

O=C1CCC(N2Cc3cc(N[C@H]4CCCC[C@@H]4NCc4ccccc4)ccc3C2=O)C(=O)N1 (stereo partly drawn) [Compound I-3, 3-(5-(((1S,2S)-2-(benzylamino)cyclohexyl)amino)-1-oxoisoindolin-2-yl)piperidine-2,6-dione]
DC50 [2]: > 30 µM
inhibition at 10 µM ([3]; 24 h): 65%
DC50 [3]: 0.029 µM
DC50 [1]: > 30 µM

CN(C)[C@H]1CCCC[C@@H]1Nc1ccc2c(c1)C(=O)N(C1CCC(=O)NC1=O)C2=O (stereo partly drawn) [Compound I-153, 5-(((1S,2S)-2-(dimethylamino)cyclohexyl)amino)-2-(2,6-dioxopiperidin-3-yl)isoindoline-1,3-dione]
DC50 [2]: > 30 µM
inhibition at 10 µM ([3]; 24 h): 50%
DC50 [3]: 0.41 µM
DC50 [1]: > 50 µM

CN(c1ccc2c(c1)C(=O)N(C1CCC(=O)NC1=O)C2=O)[C@H]1CCCC[C@@H]1NCc1ccccc1 (stereo partly drawn) [Compound I-133, 5-(((1S,2S)-2-(benzylamino)cyclohexyl)(methyl)amino)-2-(2,6-dioxopiperidin-3-yl)isoindoline-1,3-dione]
DC50 [2]: > 30 µM
inhibition at 10 µM ([3]; 24 h): 75%
DC50 [3]: 0.45 µM

O=C1CCC(N2Cc3cc(N[C@H]4CCCC[C@@H]4NCC4CCCCC4)ccc3C2=O)C(=O)N1 (stereo partly drawn) [Compound I-12, 3-(5-(((1S,2S)-2-((cyclohexylmethyl)amino)cyclohexyl)amino)-1-oxoisoindolin-2-yl)piperidine-2,6-dione]
DC50 [2]: > 30 µM
inhibition at 10 µM ([3]; 24 h): 65%
DC50 [3]: 0.036 µM

CN(c1ccc2c(c1)C(=O)N(C1CCC(=O)NC1=O)C2=O)[C@H]1CCCC[C@@H]1NCC1(C(F)(F)F)CC1 (stereo partly drawn) [Compound I-138, 2-(2,6-dioxopiperidin-3-yl)-5-(methyl((1S,2S)-2-(((1-(trifluoromethyl)cyclopropyl)methyl)amino)cyclohexyl)amino)isoindoline-1,3-dione]
DC50 [2]: > 30 µM
inhibition at 10 µM ([3]; 24 h): 30%

CCN[C@H]1CCCC[C@@H]1N(C)c1ccc2c(c1)C(=O)N(C1CCC(=O)NC1=O)C2=O (stereo partly drawn) [Compound I-104, 2-(2,6-dioxopiperidin-3-yl)-5-(((1S,2S)-2-(ethylamino)cyclohexyl)(methyl)amino)isoindoline-1,3-dione]
DC50 [2]: 0.051 µM
inhibition at 10 µM ([3]; 24 h): 80%
DC50 [3]: 0.049 µM
DC50 [1]: > 50 µM

CCN[C@H]1CCCC[C@@H]1Nc1ccc2c(c1)CN(C1CCC(=O)NC1=O)C2=O (stereo partly drawn) [Compound I-40, 3-(5-(((1S,2S)-2-(ethylamino)cyclohexyl)amino)-1-oxoisoindolin-2-yl)piperidine-2,6-dione]
DC50 [2]: > 30 µM
inhibition at 10 µM ([3]; 24 h): 45%
DC50 [3]: 1.67 µM

CN[C@H]1CCCC[C@@H]1N(C)c1ccc2c(c1F)CN(C1CCC(=O)NC1=O)C2=O (stereo partly drawn) [Compound I-163, 3-(4-fluoro-5-(methyl((1S,2S)-2-(methylamino)cyclohexyl)amino)-1-oxoisoindolin-2-yl)piperidine-2,6-dione]
DC50 [2]: 0.57 µM
inhibition at 10 µM ([3]; 24 h): 80%
DC50 [3]: 0.066 µM

CN[C@H]1CCCCC[C@@H]1N(C)c1ccc2c(c1)C(=O)N(C1CCC(=O)NC1=O)C2=O (stereo partly drawn) [Compound I-109, 2-(2,6-dioxopiperidin-3-yl)-5-(methyl((1S,2S)-2-(methylamino)cycloheptyl)amino)isoindoline-1,3-dione]
DC50 [2]: > 30 µM
inhibition at 10 µM ([3]; 24 h): 70%
DC50 [3]: 0.23 µM
DC50 [1]: > 50 µM

N[C@H]1CCCC[C@@H]1Nc1ccc2c(c1)CN(C1CCC(=O)NC1=O)C2=O (stereo partly drawn) [Compound I-7, 3-(5-(((1S,2S)-2-aminocyclohexyl)amino)-1-oxoisoindolin-2-yl)piperidine-2,6-dione]
DC50 [2]: > 50 µM
inhibition at 10 µM ([3]; 24 h): 30%
DC50 [3]: 0.183 µM

CCN[C@H]1CCCC[C@@H]1N(CC)c1ccc2c(c1)CN(C1CCC(=O)NC1=O)C2=O (stereo partly drawn) [Compound I-55, 3-(5-(ethyl((1S,2S)-2-(ethylamino)cyclohexyl)amino)-1-oxoisoindolin-2-yl)piperidine-2,6-dione]
DC50 [2]: > 30 µM
inhibition at 10 µM ([3]; 24 h): 10%

O=C1CCC(N2Cc3cc(N[C@H]4CCCC[C@@H]4O)ccc3C2=O)C(=O)N1 (stereo partly drawn) [Compound I-1, 3-(5-(((1S,2S)-2-hydroxycyclohexyl)amino)-1-oxoisoindolin-2-yl)piperidine-2,6-dione]
DC50 [2]: > 30 µM
inhibition at 10 µM ([3]; 24 h): 20%
DC50 [1]: > 30 µM

CN[C@H]1CCC[C@@H]1N(C)c1ccc2c(c1)C(=O)N(C1CCC(=O)NC1=O)C2=O (stereo partly drawn) [Compound I-128, 2-(2,6-dioxopiperidin-3-yl)-5-(methyl((1S,2S)-2-(methylamino)cyclopentyl)amino) isoindoline-1,3-dione]
DC50 [2]: > 30 µM
inhibition at 10 µM ([3]; 24 h): 30%
DC50 [3]: > 30 µM

CC(C)CN[C@H]1CCCC[C@@H]1Nc1ccc2c(c1)CN(C1CCC(=O)NC1=O)C2=O (stereo partly drawn) [Compound I-15, 3-(5-(((1S,2S)-2-(isobutylamino)cyclohexyl)amino)-1-oxoisoindolin-2-yl)piperidine-2,6-dione]
DC50 [2]: > 30 µM
inhibition at 10 µM ([3]; 24 h): 60%
DC50 [3]: 0.094 µM

CN(c1ccc2c(c1)C(=O)N(C1CCC(=O)NC1=O)C2=O)[C@H]1CCCC[C@@H]1NCc1cccnc1 (stereo partly drawn) [Compound I-143, 2-(2,6-dioxopiperidin-3-yl)-5-(methyl((1S,2S)-2-((pyridin-3-ylmethyl)amino)cyclohexyl)amino)isoindoline-1,3-dione]
DC50 [2]: > 30 µM
inhibition at 10 µM ([3]; 24 h): 40%
DC50 [3]: 23.1 µM

CN(c1ccc2c(c1)C(=O)N(C1CCC(=O)NC1=O)C2=O)[C@H]1CCCC[C@@H]1N (stereo partly drawn) [Compound I-99, 5-(((1S,2S)-2-aminocyclohexyl)(methyl)amino)-2-(2,6-dioxopiperidin-3-yl)isoindoline-1,3-dione]
DC50 [2]: 5.2 µM
inhibition at 10 µM ([3]; 24 h): 70%
DC50 [3]: 0.15 µM
DC50 [1]: > 50 µM

CN[C@H]1CCCC[C@@H]1Nc1ccc2c(c1)CN(C1CCC(=O)NC1=O)C2=O (stereo partly drawn) [Compound I-10, 3-(5-(((1S,2S)-2-(methylamino)cyclohexyl)amino)-1-oxoisoindolin-2-yl)piperidine-2,6-dione]
DC50 [2]: > 30 µM
inhibition at 10 µM ([3]; 24 h): 50%
DC50 [3]: 0.99 µM
DC50 [1]: > 50 µM

CN[C@H]1CCCC[C@@H]1N(C)c1ccc2c(c1)CN(C1CCC(=O)NC1=O)C2=O (stereo partly drawn) [Compound I-8, 3-(5-(methyl((1S,2S)-2-(methylamino)cyclohexyl)amino)-1-oxoisoindolin-2-yl)piperidine-2,6-dione]
DC50 [2]: > 50 µM
inhibition at 10 µM ([3]; 24 h): 65%
DC50 [3]: 0.103 µM
DC50 [1]: > 50 µM

CN(Cc1ccccc1)[C@H]1CCCC[C@@H]1N(C)c1ccc2c(c1)CN(C1CCC(=O)NC1=O)C2=O (stereo partly drawn) [Compound I-6, 3-(5-(((1S,2S)-2-(benzyl(methyl)amino)cyclohexyl)(methyl)amino)-1-oxoisoindolin-2-yl)piperidine-2,6-dione]
DC50 [2]: > 50 µM
inhibition at 10 µM ([3]; 24 h): 65%
DC50 [3]: 0.043 µM

CC(C)N[C@H]1CCCC[C@@H]1Nc1ccc2c(c1)CN(C1CCC(=O)NC1=O)C2=O (stereo partly drawn) [Compound I-45, 3-(5-(((1S,2S)-2-(isopropylamino)cyclohexyl)amino)-1-oxoisoindolin-2-yl)piperidine-2,6-dione]
DC50 [2]: > 30 µM
inhibition at 10 µM ([3]; 24 h): 70%
DC50 [3]: 0.1 µM
DC50 [1]: > 50 µM

CN[C@@H]1CCCC[C@H]1N(C)c1ccc2c(c1)CN(C1CCC(=O)NC1=O)C2=O (relative stereo) [Compound I-9, trans-3-(5-(methyl(-2-(methylamino)cyclohexyl)amino)-1-oxoisoindolin-2-yl)piperidine-2,6-dione]
DC50 [2]: > 50 µM
IKZF2 % protein reduction at 10 µM, 24 h ([3]; 10 µM, 24 h, 293GT cells): 65%
DC50 [3]: 0.113 µM
DC50 [1]: > 50 µM

CN(C)[C@H]1CCCC[C@@H]1N(C)c1ccc2c(c1)C(=O)N(C1CCC(=O)NC1=O)C2=O (stereo partly drawn) [Compound I-96, 5-(((1S,2S)-2-(dimethylamino)cyclohexyl)(methyl)amino)-2-(2,6-dioxopiperidin-3-yl)isoindoline-1,3-dione]
DC50 [2]: 2.37 µM
inhibition at 10 µM ([3]; 24 h): 50%
DC50 [3]: 1.57 µM
DC50 [1]: > 50 µM
